Assay results as given in ChEMBL document CHEMBL1147282, “3 beta-O-palmityl longispinogenin from Trichocereus chilensis” (J Nat Prod, 1989).

Assays:
A549 = assay: Cytotoxicity against human A549 cells; assay type: functional; settings: read-out: ED50 (the source's name)
MCF7 = assay: Cytotoxicity against human MCF7 cells; assay type: functional; settings: read-out: ED50 (the source's name)
HT-29 = assay: Cytotoxicity against human HT-29 cells; assay type: functional; settings: read-out: ED50 (the source's name)
Artemia = assay: Toxicity in brine shrimp; assay type: organism-based; settings: in vivo

Compound: CCCCCCCCCCCCCCCC(=O)O[C@H]1CC[C@]2(C)[C@H]3CC=C4[C@@H]5CC(C)(C)CC[C@]5(CO)[C@@H](O)C[C@@]4(C)[C@]3(C)CC[C@H]2C1(C)C
- EC50 (A549): > 10 µg/mL
- EC50 (MCF7): > 10 µg/mL
- EC50 (HT-29): > 10 µg/mL
- LC50 (Artemia): > 1000 ppm
